Test results published in ChEMBL document CHEMBL5338820, “Discovery and Design of Novel Cyclic Peptides as Specific Inhibitors Targeting CCN2 and Disrupting CCN2/EGFR Interaction for Kidney Fibrosis Treatment” (J Med Chem, 2023).
Calls of active or inactive are those of the source. The rule behind the calls is not given here. Peptide text beside a SMILES is read from it.

Columns and labels:
[1] = target: T1, CCN family member 2 (Homo sapiens) (UniProt P29279); assay: Inhibition of recombinant human CCN2 CT domain expressed in human […] cells assessed as reduction in COL1A1 synthesis at 100 uM incubated for 24 hrs by Western blotting assay; type: cell-based
T1 sequence (whole entry): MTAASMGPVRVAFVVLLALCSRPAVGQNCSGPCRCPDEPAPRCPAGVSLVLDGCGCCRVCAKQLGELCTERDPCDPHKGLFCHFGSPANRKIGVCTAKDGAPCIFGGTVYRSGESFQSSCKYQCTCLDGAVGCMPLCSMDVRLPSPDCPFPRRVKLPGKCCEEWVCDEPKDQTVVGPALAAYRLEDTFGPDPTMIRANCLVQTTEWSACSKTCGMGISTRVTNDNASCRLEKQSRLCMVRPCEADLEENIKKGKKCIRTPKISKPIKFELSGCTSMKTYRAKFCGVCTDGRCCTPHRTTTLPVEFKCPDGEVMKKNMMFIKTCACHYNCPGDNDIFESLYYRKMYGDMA

CCN2-EGFR (Homo sapiens) [2] = target: T2, CCN2-EGFR (Homo sapiens) (UniProt P00533+P29279); assay: Inhibition of His-tagged full length human CCN2 FL domain/human Fc-tagged EGFR protein-protein interaction using TMB as chromogenic substrate at 100 uM incubated for 140 mins by microplate reader assay relative to control
T2 sequence (P00533 whole entry, looked up, one chain of several, the tested form may be a part): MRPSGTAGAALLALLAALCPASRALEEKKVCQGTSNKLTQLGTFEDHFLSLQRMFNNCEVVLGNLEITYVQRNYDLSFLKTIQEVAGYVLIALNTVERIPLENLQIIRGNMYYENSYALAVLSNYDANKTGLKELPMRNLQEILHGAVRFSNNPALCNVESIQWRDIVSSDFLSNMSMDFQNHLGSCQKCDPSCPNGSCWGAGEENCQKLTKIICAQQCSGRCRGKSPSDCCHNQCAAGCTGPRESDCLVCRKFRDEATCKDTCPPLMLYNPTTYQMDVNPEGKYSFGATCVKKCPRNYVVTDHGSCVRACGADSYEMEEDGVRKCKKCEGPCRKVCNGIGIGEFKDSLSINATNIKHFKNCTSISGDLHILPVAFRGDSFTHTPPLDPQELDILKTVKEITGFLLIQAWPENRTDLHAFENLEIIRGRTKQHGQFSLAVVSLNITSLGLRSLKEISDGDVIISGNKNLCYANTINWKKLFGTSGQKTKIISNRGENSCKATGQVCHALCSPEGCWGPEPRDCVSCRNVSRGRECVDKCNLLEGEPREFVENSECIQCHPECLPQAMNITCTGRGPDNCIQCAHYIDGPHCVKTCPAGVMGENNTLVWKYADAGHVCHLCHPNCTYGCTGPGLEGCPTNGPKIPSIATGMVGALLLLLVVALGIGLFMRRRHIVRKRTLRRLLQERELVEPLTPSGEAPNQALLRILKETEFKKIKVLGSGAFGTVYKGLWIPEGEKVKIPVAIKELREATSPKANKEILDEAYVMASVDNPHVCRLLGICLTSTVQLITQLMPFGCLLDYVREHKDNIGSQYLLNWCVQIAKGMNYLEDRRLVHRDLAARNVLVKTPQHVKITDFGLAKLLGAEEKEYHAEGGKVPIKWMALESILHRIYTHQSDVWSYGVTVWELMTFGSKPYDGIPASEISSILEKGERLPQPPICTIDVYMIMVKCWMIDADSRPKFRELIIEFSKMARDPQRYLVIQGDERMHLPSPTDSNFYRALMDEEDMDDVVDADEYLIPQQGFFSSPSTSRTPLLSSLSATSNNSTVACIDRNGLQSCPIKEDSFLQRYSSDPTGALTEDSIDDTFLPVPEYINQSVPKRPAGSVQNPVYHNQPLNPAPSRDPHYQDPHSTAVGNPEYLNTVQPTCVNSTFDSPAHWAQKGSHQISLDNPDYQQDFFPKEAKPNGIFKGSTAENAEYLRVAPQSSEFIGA

[3] = target: T1, CCN family member 2 (Homo sapiens); assay: Inhibition of recombinant human CCN2 CT domain expressed in human […] cells assessed as reduction in fibronectin synthesis at 100 uM incubated for 24 hrs by Western blotting assay; type: cell-based
CCN2-EGFR (Homo sapiens) [4] = target: T2, CCN2-EGFR (Homo sapiens); assay: Inhibition of His-tagged full length human CCN2 CT domain/human Fc-tagged EGFR protein-protein interaction using TMB as chromogenic substrate at 100 uM incubated for 140 mins by microplate reader assay relative to control
CCN2-EGFR (Homo sapiens) [5] = target: T2, CCN2-EGFR (Homo sapiens); assay: Inhibition of His-tagged full length human CCN2 CT domain/human Fc-tagged EGFR protein-protein interaction using TMB as chromogenic substrate at 0.1 mg/ml incubated for 140 mins by microplate reader assay relative to control
[6] = target: T1, CCN family member 2 (Homo sapiens); assay: Inhibition of recombinant human CCN2 FL domain expressed in human HK-1 cells assessed as reduction in fibronectin synthesis at 0.1 mg/ml incubated for 24 hrs by Western blotting assay; type: cell-based
CCN2-EGFR (Homo sapiens) [7] = target: T2, CCN2-EGFR (Homo sapiens); assay: Inhibition of His-tagged full length human CCN2 FL domain/human Fc-tagged EGFR protein-protein interaction using TMB as chromogenic substrate at 0.1 mg/ml incubated for 140 mins by microplate reader assay relative to control
[8] = target: T1, CCN family member 2 (Homo sapiens); assay: Inhibition of recombinant human CCN2 FL domain expressed in human […] cells assessed as reduction in COL1A1 synthesis at 0.1 mg/ml incubated for 24 hrs by Western blotting assay; type: cell-based
[9] = target: T1, CCN family member 2 (Homo sapiens); assay: Inhibition of recombinant human CCN2 CT domain expressed in human […] cells assessed as reduction in fibronectin synthesis at 0.1 mg/ml incubated for 24 hrs by Western blotting assay; type: cell-based
[10] = target: T1, CCN family member 2 (Homo sapiens); assay: Inhibition of recombinant human CCN2 CT domain expressed in human […] cells assessed as reduction in COL1A1 synthesis at 0.1 mg/ml incubated for 24 hrs by Western blotting assay; type: cell-based

Structure (SMILES): C[C@H](N)C(=O)N[C@@H](CC(=O)O)C(=O)N[C@H](C(=O)N[C@H](C(=O)N[C@@H](Cc1c[nH]cn1)C(=O)N[C@@H](Cc1c[nH]cn1)C(=O)N[C@@H](CCCNC(=N)N)C(=O)N1CCC[C@H]1C(=O)N[C@@H](Cc1c[nH]c2ccccc12)C(=O)N[C@H](C(N)=O)[C@@H](C)O)[C@@H](C)O)[C@@H](C)O (H-ADTTHHRPWT-NH2)
- inhibition [1]: Active
- inhibition (CCN2-EGFR (Homo sapiens) [2]): 70.6%
- inhibition [3]: Active
- inhibition (CCN2-EGFR (Homo sapiens) [4]): 61.9%

Structure (SMILES): C[C@@H](O)[C@H](NC(=O)[C@H](Cc1c[nH]c2ccccc12)NC(=O)[C@@H]1CCCN1C(=O)[C@H](CCCNC(=N)N)NC(=O)[C@H](Cc1c[nH]cn1)NC(=O)[C@H](Cc1c[nH]cn1)NC(=O)[C@@H](NC(=O)[C@@H](NC(=O)[C@@H](N)CC(=O)O)[C@@H](C)O)[C@@H](C)O)C(N)=O (H-DTTHHRPWT-NH2)
- inhibition [1]: Active
- inhibition (CCN2-EGFR (Homo sapiens) [2]): 63.7%
- inhibition [3]: Active
- inhibition (CCN2-EGFR (Homo sapiens) [4]): 65.8%

Structure (SMILES): C[C@@H](O)[C@H](NC(=O)[C@H](Cc1c[nH]c2ccccc12)NC(=O)[C@@H]1CCCN1C(=O)[C@H](CCCNC(=N)N)NC(=O)[C@H](Cc1c[nH]cn1)NC(=O)[C@@H](N)Cc1c[nH]cn1)C(N)=O (H-HHRPWT-NH2)
- inhibition [1]: inactive
- inhibition (CCN2-EGFR (Homo sapiens) [2]): 16%
- inhibition [3]: inactive
- inhibition (CCN2-EGFR (Homo sapiens) [4]): 9.4%

Structure (SMILES): C[C@@H](O)[C@H](NC(=O)[C@H](Cc1c[nH]c2ccccc12)NC(=O)[C@@H]1CCCN1C(=O)[C@H](CCCNC(=N)N)NC(=O)[C@@H](N)Cc1c[nH]cn1)C(N)=O (H-HRPWT-NH2)
- inhibition [1]: inactive
- inhibition (CCN2-EGFR (Homo sapiens) [2]): 13.9%
- inhibition [3]: inactive
- inhibition (CCN2-EGFR (Homo sapiens) [4]): 7.9%

Structure (SMILES): CC(C)C[C@H](N)C(=O)N[C@@H](C)C(=O)N[C@@H](CC(=O)O)C(=O)N[C@H](C(=O)N[C@H](C(=O)N[C@@H](Cc1c[nH]cn1)C(=O)N[C@@H](Cc1c[nH]cn1)C(=O)N[C@@H](CCCNC(=N)N)C(=O)N1CCC[C@H]1C(=O)N[C@@H](Cc1c[nH]c2ccccc12)C(=O)N[C@H](C(N)=O)[C@@H](C)O)[C@@H](C)O)[C@@H](C)O (H-LADTTHHRPWT-NH2)
- inhibition [1]: Active
- inhibition (CCN2-EGFR (Homo sapiens) [2]): 68.8%
- inhibition [3]: Active
- inhibition (CCN2-EGFR (Homo sapiens) [4]): 67.4%

Structure (SMILES): CC(C)C[C@H](NC(=O)[C@@H](N)CC(C)C)C(=O)N[C@@H](C)C(=O)N[C@@H](CC(=O)O)C(=O)N[C@H](C(=O)N[C@H](C(=O)N[C@@H](Cc1c[nH]cn1)C(=O)N[C@@H](Cc1c[nH]cn1)C(=O)N[C@@H](CCCNC(=N)N)C(=O)N1CCC[C@H]1C(=O)N[C@@H](Cc1c[nH]c2ccccc12)C(=O)N[C@H](C(N)=O)[C@@H](C)O)[C@@H](C)O)[C@@H](C)O (H-LLADTTHHRPWT-NH2)
- inhibition (CCN2-EGFR (Homo sapiens) [5]): 71.4%
- inhibition [6]: Active
- inhibition (CCN2-EGFR (Homo sapiens) [7]): 39.5%
- inhibition [8]: Active
- inhibition [9]: Active
- inhibition [10]: Active

Structure (SMILES): C[C@@H](O)[C@H](N)C(=O)N[C@@H](Cc1c[nH]cn1)C(=O)N[C@@H](Cc1c[nH]cn1)C(=O)N[C@@H](CCCCN)C(=O)N1CCC[C@H]1C(=O)N[C@@H](Cc1c[nH]c2ccccc12)C(=O)N[C@H](C(N)=O)[C@@H](C)O (H-THHKPWT-NH2)
- inhibition [1]: inactive
- inhibition (CCN2-EGFR (Homo sapiens) [2]): 14.4%
- inhibition [3]: inactive
- inhibition (CCN2-EGFR (Homo sapiens) [4]): 65.8%

Structure (SMILES): C[C@@H](O)[C@H](N)C(=O)N[C@@H](Cc1c[nH]cn1)C(=O)N[C@@H](Cc1c[nH]cn1)C(=O)N[C@@H](CCCNC(=N)N)C(=O)N[C@@H](CCCCN)C(=O)N[C@@H](Cc1c[nH]c2ccccc12)C(=O)N[C@H](C(N)=O)[C@@H](C)O (H-THHRKWT-NH2)
- inhibition [1]: inactive
- inhibition (CCN2-EGFR (Homo sapiens) [2]): 15%
- inhibition [3]: inactive
- inhibition (CCN2-EGFR (Homo sapiens) [4]): 11%

Structure (SMILES): C[C@@H](O)[C@H](N)C(=O)N[C@@H](Cc1c[nH]cn1)C(=O)N[C@@H](Cc1c[nH]cn1)C(=O)N[C@@H](CCCNC(=N)N)C(=O)N1CCC[C@H]1C(=O)N[C@@H](Cc1c[nH]c2ccccc12)C(=O)N[C@H](C(N)=O)[C@@H](C)O (H-THHRPWT-NH2)
- inhibition [1]: Active
- inhibition (CCN2-EGFR (Homo sapiens) [2]): 66.6%
- inhibition [3]: Active
- inhibition (CCN2-EGFR (Homo sapiens) [4]): 62%

Structure (SMILES): C[C@@H](O)[C@H](N)C(=O)N[C@@H](Cc1c[nH]cn1)C(=O)N[C@@H](Cc1c[nH]cn1)C(=O)N[C@@H](CCCNC(=N)N)C(=O)N[C@@H](CCC(N)=O)C(=O)N[C@@H](Cc1c[nH]c2ccccc12)C(=O)N[C@H](C(N)=O)[C@@H](C)O (H-THHRQWT-NH2)
- inhibition (CCN2-EGFR (Homo sapiens) [2]): 4.5%
- inhibition (CCN2-EGFR (Homo sapiens) [4]): 1.2%

Structure (SMILES): C[C@@H](O)[C@H](N)C(=O)N[C@@H](Cc1c[nH]cn1)C(=O)N[C@@H](CCCCN)C(=O)N[C@@H](CCCNC(=N)N)C(=O)N1CCC[C@H]1C(=O)N[C@@H](Cc1c[nH]c2ccccc12)C(=O)N[C@H](C(N)=O)[C@@H](C)O (H-THKRPWT-NH2)
- inhibition [1]: Active
- inhibition (CCN2-EGFR (Homo sapiens) [2]): 59.7%
- inhibition [3]: Active
- inhibition (CCN2-EGFR (Homo sapiens) [4]): 63.4%

Structure (SMILES): C[C@@H](O)[C@H](N)C(=O)N[C@@H](Cc1c[nH]cn1)C(=O)N[C@@H](CCC(N)=O)C(=O)N[C@@H](CCCNC(=N)N)C(=O)N1CCC[C@H]1C(=O)N[C@@H](Cc1c[nH]c2ccccc12)C(=O)N[C@H](C(N)=O)[C@@H](C)O (H-THQRPWT-NH2)
- inhibition (CCN2-EGFR (Homo sapiens) [2]): 5.1%
- inhibition (CCN2-EGFR (Homo sapiens) [4]): 10.9%

Structure (SMILES): C[C@@H](O)[C@H](N)C(=O)N[C@@H](CCC(N)=O)C(=O)N[C@@H](Cc1c[nH]cn1)C(=O)N[C@@H](CCCNC(=N)N)C(=O)N1CCC[C@H]1C(=O)N[C@@H](Cc1c[nH]c2ccccc12)C(=O)N[C@H](C(N)=O)[C@@H](C)O (H-TQHRPWT-NH2)
- inhibition (CCN2-EGFR (Homo sapiens) [2]): 6.8%
- inhibition (CCN2-EGFR (Homo sapiens) [4]): 11.8%

Structure (SMILES): C[C@@H](O)[C@H](N)C(=O)N[C@H](C(=O)N[C@@H](Cc1c[nH]cn1)C(=O)N[C@@H](Cc1c[nH]cn1)C(=O)N[C@@H](CCCNC(=N)N)C(=O)N1CCC[C@H]1C(=O)N[C@@H](Cc1c[nH]c2ccccc12)C(=O)N[C@H](C(N)=O)[C@@H](C)O)[C@@H](C)O (H-TTHHRPWT-NH2)
- inhibition [1]: Active
- inhibition (CCN2-EGFR (Homo sapiens) [2]): 68.1%
- inhibition [3]: Active
- inhibition (CCN2-EGFR (Homo sapiens) [4]): 60%

Structure (SMILES): C[C@@H](O)[C@@H]1NC(=O)[C@H](Cc2c[nH]c3ccccc23)NC(=O)[C@@H]2CCCN2C(=O)[C@H](CCCNC(=N)N)NC(=O)[C@H](CCCCN)NC(=O)[C@H](Cc2c[nH]cn2)NC(=O)[C@H]([C@@H](C)O)NC1=O (cyclo(HKRPWTT))
- inhibition (CCN2-EGFR (Homo sapiens) [2]): 17.4%
- inhibition (CCN2-EGFR (Homo sapiens) [4]): 13.2%
